System: synaptic responses between Schaffer collaterals and dendrites in the CA1 region
Experiment: Long-term potentiation in hippocampal slices of magnesium-deficient rats (restoration of synaptic plasticity)
Format: ex vivo, rat
Description: [Comparative experiments were conducted on rats to measure the efficiency of synaptic transmission and synaptic plasticity, in particular in order to measure the recovery of synaptic plasticity.
Three groups of rats were made up as follows:
Group 1: control rats on a normal diet;
Group 2: magnesium-deficient rats on a low-magnesium diet;
Group 3: magnesium-deficient rats supplemented with a composition according to the invention containing magnesium N-acetyl taurinate dihydrate containing two intrinsic water molecules (ATAMg dihydrate) at a dose of […] magnesium N-acetyl taurinate dihydrate containing two intrinsic water molecules (in the water). Supplementation was started 40 days after the beginning of the low-magnesium diet and was carried on for 24 days.
The hippocampi of the rats from each group were dissected to measure synaptic plasticity. In particular, synaptic responses were measured between Schaffer collaterals and dendrites in the CA1 region. A baseline was recorded for 30 minutes corresponding to a synaptic response of 40% of the peak response. Then the long-term plasticity process was induced by applying four 100 Hz trains at 5-minute intervals. The increased response was measured over four hours. For every experiment, a control pathway without any high-frequency stimulation was also measured.

`CC(=O)NCCS(=O)(=O)[O-].CC(=O)NCCS(=O)(=O)[O-].O.O.[Mg+2]` [magnesium N-acetyl taurinate dihydrate] was tested, and the long-term potentiation (Group 3: magnesium-deficient rats supplemented in the water at 50 mg/kg/hour (50 mg/kg/day) for 24 days, four 100 Hz trains, response measured over four hours, FIG. 3) was “over 300%”, the “control pathway / baseline stability” value (Group 3: magnesium-deficient rats supplemented in the water for 24 days, control pathway without high-frequency stimulation, FIG. 3) was “stabilisation of the baseline” and the “recovery/restoration of synaptic plasticity” value (comparison of Group 3 (supplemented) with Group 2 (magnesium-deficient rats)) was “induces the recovery/restoration of synaptic plasticity”.

From patent US20220008455A1, “Compound and Composition for Use in the Preventive and/or Curative Treatment of Diseases of the Central Nervous System Characterised by a Decline in Neuronal Plasticity, in Particular Characterised by a Decline in Synaptic Plasticity” (SYNAPHARM INDUSTRIAL SYNTHESIS, priority 2017, published 2022)
